Patent US20250296938A1, “Compounds that Interact with the Ras Superfamily for the Treatment of Cancers, Inflammatory Diseases, Rasopathies, and Fibrotic Disease” (SHY Therapeutics, LLC, priority 2018, published 2025)

How the values were obtained:
[1] = tested on: IL-6; test: Mouse IL6 quantification assay, LPS-stimulated RAW 264.7 macrophages; format: cell-based; conditions: RAW264.7, 30 μM, LPS-stimulated RAW 264.7 macrophages
Procedure: (§1) Cell lines: Abelson murine leukemia virus transformed macrophage cell line RAW 264.7 was purchased from ATCC and grown in complete DMEM-High Glucose medium supplemented with penicillin (100 U/mL), streptomycin (100 μg/mL), and 10% heat-inactivated FBS at 37° C. in a humidified incubator with 5% CO2.
(§2) Method: Cells were plated at 25000-40000 cells/well density in a 96-well plate. After a 3-hour incubation, macrophages were starved with DMEM plus 0.5% FBS overnight. The next day the small molecules to be tested were added to the cells in the final concentration of 30 μM (with 0.3% DMSO) 3 hours prior to LPS stimulation (100 ng/ml). After LPS stimulation cells were incubated at 37° C. for 16 h. Alternatively, compounds were also tested at 10 μM and LPS (100 ng/ml) was added concurrently and incubated 5 hours at 37° C. At the end of the incubation periods, culture medium was collected and production of LPS-induced TNF-α and IL-6 cytokine was measured using ELISA detection kits.
(§3) Sandwich ELISA: The ELISA Immunoassays Quantikine Mouse TNF-alpha (catalog number MTA00B) and IL6 (catalog number M6000B) were purchased from R&D Systems Inc., Minneapolis, MN. These 4.5 hours solid phase ELISAs were used to measure mouse TNF-α or IL-6 levels in macrophages culture supernatants. Assays were executed according to the manufacturer specifications.

[2] = tested on: TNF-α; test: Mouse TNF alpha quantification assay, LPS-stimulated RAW 264.7 macrophages; format: cell-based; conditions: RAW264.7, 30 μM, LPS-stimulated RAW 264.7 macrophages
Procedure: as §1, §2, §3

| SMILES | inhibition at 30 µM [1] [%] | inhibition at 30 µM [2] [%] |
| --- | --- | --- |
| COCCNc1nc(-c2nccn2C)nc2sc(-c3cccc(OC)c3Cl)c(-c3ccc(OC)cc3)c12 [drawing 697] | 26 to 50 | 0 |
| COCCNc1nc(-c2nccn2C)nc2sc(-c3cc(OC)ccc3Cl)c(-c3ccc(OC)cc3)c12 [drawing 698] | 51 to 75 | 26 to 50 |
| COCCNc1nc(-c2cn(C)cn2)nc2sc(-c3ccccc3Cl)c(-c3ccc(OC)cc3)c12 [drawing 699] | 76 to 100 | 76 to 100 |
| COCCNc1nc(-c2nccn2C)nc2sc(-c3cccc(OC)c3Cl)c(-c3ccccc3)c12 [drawing 700] | 76 to 100 | 76 to 100 |
| COCCNc1nc(-c2nccn2C)nc2sc(-c3cc(OC)ccc3Cl)c(-c3ccccc3)c12 [drawing 701] | 51 to 75 | 1 to 25 |
| COc1cc(-c2sc3nc(-c4nccn4C)nc(N4CCC(OC)C4)c3c2-c2ccccc2)ccn1 (centres unmarked) [drawing 702] | 76 to 100 | 76 to 100 |
| COC1CCN(c2nc(-c3nccn3C)nc3sc(-c4ccnn4C)c(-c4ccccc4)c23)C1 (centres unmarked) [drawing 703] | 26 to 50 | 0 |
| COC1CCN(c2nc(-c3nccn3C)nc3sc(-c4cccnc4)c(-c4ccccc4)c23)C1 (centres unmarked) [drawing 704] | 76 to 100 | 76 to 100 |
| COc1ccc(-c2sc3nc(-c4nccn4C)nc(N4CCC(OC)C4)c3c2-c2ccccc2)cn1 (centres unmarked) [drawing 705] | 76 to 100 | 76 to 100 |
| COc1ncccc1-c1sc2nc(-c3nccn3C)nc(N3CCC(OC)C3)c2c1-c1ccccc1 (centres unmarked) [drawing 706] | 76 to 100 | 76 to 100 |
| COC1CCN(c2nc(-c3nccn3C)nc3sc(-c4cnc(C5CC5)o4)c(-c4ccccc4)c23)C1 (centres unmarked) [drawing 707] | 76 to 100 | 26 to 50 |
| COCCn1cc(-c2sc3nc(-c4nccn4C)nc(N4CCC(OC)C4)c3c2-c2ccccc2)cn1 (centres unmarked) [drawing 708] | 76 to 100 | 76 to 100 |
| COC1CCN(c2nc(-c3nccn3C)nc3sc(-c4ccncc4C)c(-c4ccccc4)c23)C1 (centres unmarked) [drawing 709] | 76 to 100 | 26 to 50 |
| COC1CCN(c2nc(-c3nccn3C)nc3sc(-c4cnn(C)c4)c(-c4ccccc4)c23)C1 (centres unmarked) [drawing 710] | 26 to 50 | 51 to 75 |
| COC1CCN(c2nc(-c3nccn3C)nc3sc(-c4ccc(CO)cc4)c(-c4ccccc4)c23)C1 (centres unmarked) [drawing 711] | 76 to 100 | 76 to 100 |
| COC1CCN(c2nc(-c3nccn3C)nc3sc(-c4ccc(N)nc4C)c(-c4ccccc4)c23)C1 (centres unmarked) [drawing 712] | 1 to 25 | 0 |
| COC1CCN(c2nc(-c3nccn3C)nc3sc(-c4ccccc4CO)c(-c4ccccc4)c23)C1 (centres unmarked) [drawing 713] | 76 to 100 | 76 to 100 |
| COc1nscc1-c1sc2nc(-c3nccn3C)nc(N3CCC(OC)C3)c2c1-c1ccccc1 (centres unmarked) [drawing 714] | 76 to 100 | 76 to 100 |
| COC1CCN(c2nc(-c3nccn3C)nc3sc(-c4ccnc(N(C)C)c4)c(-c4ccccc4)c23)C1 (centres unmarked) [drawing 715] | 76 to 100 | 76 to 100 |
| COC1CCN(c2nc(-c3nccn3C)nc3sc(Br)c(-c4ccccc4)c23)C1 (centres unmarked) [drawing 716] | 51 to 75 | 26 to 50 |
| COc1ccc(-c2c(-c3cccc(OC)c3F)sc3nc(-c4nccn4C)nc(N4CCC(OC)C4)c23)cc1 (centres unmarked) [drawing 717] | 76 to 100 | 76 to 100 |
| COCC1CN(c2nc(-c3nccn3C)nc3sc(-c4cccc(OC)c4F)c(-c4ccc(OC)cc4)c23)C1 [drawing 718] | 76 to 100 | 76 to 100 |
| COc1cccc(-c2sc3nc(-c4nccn4C)nc(N4CCC(OC)C4)c3c2-c2ccccc2)c1F (centres unmarked) [drawing 719] | 76 to 100 | 76 to 100 |

| SMILES | inhibition at 30 µM [1] [%] | inhibition at 30 µM [2] [%] |
| --- | --- | --- |
| COc1c(O)nc(-c2ccccn2)nc1Oc1cnn(C)c1 [drawing 720] | 26 to 50 | 0 |
| COc1c(O)nc(-c2ccccn2)nc1Oc1ccc2ncccc2c1 [drawing 721] | 76 to 100 | 1 to 25 |
| COc1c(O)nc(-c2ccccn2)nc1Oc1cccnc1 [drawing 722] | 51 to 75 | 0 |
| COc1cccc(Oc2nc(-c3ccccn3)nc(O)c2OC)c1 [drawing 723] | 76 to 100 | 26 to 50 |
| COc1ccc(Oc2nc(-c3ccccn3)nc(O)c2OC)cc1 [drawing 724] | 76 to 100 | 1 to 25 |
| COCCc1ccc(Oc2nc(-c3ccccn3)nc(O)c2OC)cc1 [drawing 725] | 76 to 100 | 1 to 25 |
| COc1c(O)nc(-c2ccccn2)nc1Oc1ccccc1 [drawing 726] | 76 to 100 | 1 to 25 |
| O=C(c1nc(-c2ccccn2)nc(O)c1O)N1CCOCC1 [drawing 728] | 0 | 1 to 25 |
| CN(Cc1ccccc1)C(=O)c1nc(-c2ccccn2)nc(O)c1O [drawing 729] | 1 to 25 | 0 |
| O=C(NCc1ccccc1)c1nc(-c2ccccn2)nc(O)c1O [drawing 730] | 76 to 100 | 76 to 100 |
| O=C(c1nc(-c2ccccn2)nc(O)c1O)N1CCCC1 [drawing 731] | 0 | 1 to 25 |
| O=C(NC1CCCC1)c1nc(-c2ccccn2)nc(O)c1O [drawing 732] | 76 to 100 | 26 to 50 |
| CC(C)CN(C)C(=O)c1nc(-c2ccccn2)nc(O)c1O [drawing 733] | 0 | 0 |
| CC(C)CNC(=O)c1nc(-c2ccccn2)nc(O)c1O [drawing 734] | 76 to 100 | 26 to 50 |
| COCCN(C)C(=O)c1nc(-c2ccccn2)nc(O)c1O [drawing 735] | 0 | 1 to 25 |
| O=C(NC1CCC1)c1nc(-c2ccccn2)nc(O)c1O [drawing 736] | 76 to 100 | 1 to 25 |
| CC(C)NC(=O)c1nc(-c2nccn2C)nc(O)c1O [drawing 737] | 0 | 1 to 25 |
| CCN(CC)C(=O)c1nc(-c2nccn2C)nc(O)c1O [drawing 738] | 0 | 1 to 25 |
| Cn1ccnc1-c1nc(O)c(O)c(C(=O)N2CCCC2)n1 [drawing 739] | 0 | 1 to 25 |
| Cn1ccnc1-c1nc(O)c(O)c(C(=O)NC2CCCC2)n1 [drawing 740] | 0 | 1 to 25 |
| Cn1ccnc1-c1nc(O)c(O)c(C(=O)N2CCCCC2)n1 [drawing 741] | 0 | 1 to 25 |
| Cn1ccnc1-c1nc(O)c(O)c(C(=O)NC2CCC2)n1 [drawing 742] | 0 | 1 to 25 |
| COC(=O)c1nc(-c2nccn2C)nc(O)c1O [drawing 743] | 0 | 0 |
